Experimental data as given in the supplement of paper PMC8617591.

Tests used:
[1] = test system: Mycobacterium tuberculosis Erdman (autoluminescent); assay: FIC90 (Loewe) at 90% inhibition (log2); higher = more antagonistic
Protocol: (§1)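 DiaMOND equipotent two-drug combination dose responses against autoluminescent M. tuberculosis Erdman in 8 in vitro models. Read-out is OD600, or luminescence for the intracellular and dormancy models, normalised to untreated wells. Hill-fit Einf, AUC25 and GRinf are potency metrics; FIC50 and FIC90 are Loewe-additivity fractional inhibitory concentrations, given as log2 (negative = synergy). Replicates are averaged.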

[2] = test system: Mycobacterium tuberculosis Erdman (autoluminescent); assay: Einf, fitted maximum growth inhibition of combination (fraction); higher = stronger maximal inhibition
Protocol: as §1

[3] = test system: Mycobacterium tuberculosis Erdman (autoluminescent); assay: GRinf, maximum normalised growth rate inhibition (unitless (-1 to 1)); higher = less effect (negative = killing)
Protocol: as §1

[4] = test system: Mycobacterium tuberculosis Erdman (autoluminescent); assay: AUC25, normalised area under dose response up to IC25 (fraction (0-1)); higher = more potent at low dose
Protocol: as §1

[5] = test system: Mycobacterium tuberculosis Erdman (autoluminescent); assay: FIC50 (Loewe) at 50% inhibition (log2); higher = more antagonistic
Protocol: as §1

CC(C)/N=c1\cc2n(-c3ccc(Cl)cc3)c3ccccc3nc-2cc1Nc1ccc(Cl)cc1 [clofazimine] + NC(=O)c1cnccn1 [pyrazinamide]
Conditions | AUC25, [4] | Einf, [2] | FIC50, [5] | FIC90, [1] | GRinf, [3]
in vitro model: acidic pH 5.7, time point: constant (~7 days, model-specific) | 0.0987 | 0.807 | -0.0856 | – | -0.109
in vitro model: acidic pH 5.7, time point: terminal (~4-5 doublings, model-specific) | 0.106 | 0.98 | -0.519 | -0.794 | -0.397
in vitro model: intracellular J774, time point: constant = terminal | – | 0.996 | – | 0.158 | -0.38

Conditions | AUC25, [4] | Einf, [2] | FIC50, [5] | FIC90, [1] | GRinf, [3]
in vitro model: butyrate, time point: constant (~7 days, model-specific) | 0.116 | 0.922 | -0.639 | 0.884 | -0.0318
in vitro model: butyrate, time point: terminal (~4-5 doublings, model-specific) | 0.0881 | 0.958 | -0.58 | -0.361 | -0.00889
in vitro model: cholesterol 0.05 mM, time point: constant (~7 days, model-specific) | 0.146 | 0.653 | – | – | -0.153
in vitro model: cholesterol 0.05 mM, time point: terminal (~4-5 doublings, model-specific) | 0.143 | 0.923 | 0.474 | – | -0.338
in vitro model: cholesterol-high 0.2 mM, time point: constant (~7 days, model-specific) | 0.116 | 0.896 | 0.166 | – | -0.475
in vitro model: cholesterol-high 0.2 mM, time point: terminal (~4-5 doublings, model-specific) | 0.0971 | 1 | 0.233 | 0.114 | -0.881
in vitro model: dormancy (butyrate + nitrate, low O2), time point: constant (~7 days, model-specific) | 0.12 | 0.935 | -0.722 | -0.326 | -0.0386
in vitro model: dormancy (butyrate + nitrate, low O2), time point: terminal (~4-5 doublings, model-specific) | 0.0754 | 0.989 | -0.936 | -0.669 | -0.387
in vitro model: standard 7H9 glycerol, time point: constant = terminal | 0.11 | 0.96 | -0.68 | – | -0.102
in vitro model: valerate, time point: constant (~7 days, model-specific) | 0.143 | 0.885 | -0.679 | – | -0.366
in vitro model: valerate, time point: terminal (~4-5 doublings, model-specific) | 0.0829 | 0.938 | 0.0438 | 0.152 | 0.0893

CC(C)/N=c1\cc2n(-c3ccc(Cl)cc3)c3ccccc3nc-2cc1Nc1ccc(Cl)cc1 [clofazimine] + NNC(=O)c1ccncc1 [isoniazid]
Conditions | AUC25, [4] | Einf, [2] | FIC50, [5] | FIC90, [1] | GRinf, [3]
in vitro model: acidic pH 5.7, time point: constant (~7 days, model-specific) | 0.1 | 0.747 | 0.122 | – | 0.074
in vitro model: acidic pH 5.7, time point: terminal (~4-5 doublings, model-specific) | 0.0893 | 0.942 | 0.116 | 0.154 | -0.114
in vitro model: intracellular J774, time point: constant = terminal | – | 0.951 | – | 0.406 | -0.209

Conditions | AUC25, [4] | Einf, [2] | FIC50, [5] | FIC90, [1] | GRinf, [3]
in vitro model: butyrate, time point: constant (~7 days, model-specific) | 0.0814 | 0.947 | 0.425 | 0.813 | -0.079
in vitro model: butyrate, time point: terminal (~4-5 doublings, model-specific) | 0.0801 | 0.988 | 0.35 | 0.54 | -0.117
in vitro model: cholesterol 0.05 mM, time point: constant (~7 days, model-specific) | 0.114 | 0.719 | 0.223 | – | -0.06
in vitro model: cholesterol 0.05 mM, time point: terminal (~4-5 doublings, model-specific) | 0.126 | 0.928 | 0.688 | 0.0937 | -0.181
in vitro model: cholesterol-high 0.2 mM, time point: constant (~7 days, model-specific) | 0.118 | 0.93 | 0.123 | -0.0588 | -0.856
in vitro model: cholesterol-high 0.2 mM, time point: terminal (~4-5 doublings, model-specific) | 0.106 | 0.999 | 0.197 | 0.419 | -0.882
in vitro model: dormancy (butyrate + nitrate, low O2), time point: constant (~7 days, model-specific) | 0.0958 | 0.92 | -0.176 | -0.0674 | 0.255
in vitro model: dormancy (butyrate + nitrate, low O2), time point: terminal (~4-5 doublings, model-specific) | 0.058 | 0.981 | -0.116 | -0.0457 | -0.0683
in vitro model: standard 7H9 glycerol, time point: constant = terminal | 0.105 | 0.964 | -0.0807 | 0.0617 | -0.146
in vitro model: valerate, time point: constant (~7 days, model-specific) | 0.144 | 0.925 | 0.0757 | 1.95 | -0.0991
in vitro model: valerate, time point: terminal (~4-5 doublings, model-specific) | 0.0841 | 0.937 | -0.0577 | 0.814 | 0.0302

CC(C)/N=c1\cc2n(-c3ccc(Cl)cc3)c3ccccc3nc-2cc1Nc1ccc(Cl)cc1 [clofazimine] + O=[N+]([O-])c1cn2c(n1)OC[C@@H](OCc1ccc(OC(F)(F)F)cc1)C2 [pretomanid]
Conditions | AUC25, [4] | Einf, [2] | FIC50, [5] | FIC90, [1] | GRinf, [3]
in vitro model: acidic pH 5.7, time point: constant (~7 days, model-specific) | 0.134 | 0.778 | -0.0507 | – | -0.287
in vitro model: acidic pH 5.7, time point: terminal (~4-5 doublings, model-specific) | 0.108 | 0.974 | -0.167 | 0.503 | -0.285
in vitro model: intracellular J774, time point: constant = terminal | – | 0.997 | – | 0.0803 | -0.541

Conditions | AUC25, [4] | Einf, [2] | FIC50, [5] | FIC90, [1] | GRinf, [3]
in vitro model: butyrate, time point: constant (~7 days, model-specific) | 0.117 | 0.967 | 0.464 | 1.35 | -0.167
in vitro model: butyrate, time point: terminal (~4-5 doublings, model-specific) | 0.111 | 0.995 | 0.356 | 1.26 | -0.159
in vitro model: cholesterol 0.05 mM, time point: constant (~7 days, model-specific) | 0.12 | 0.704 | 0.602 | – | 0.0886
in vitro model: cholesterol 0.05 mM, time point: terminal (~4-5 doublings, model-specific) | 0.132 | 0.919 | 0.632 | 0.298 | -0.123
in vitro model: cholesterol-high 0.2 mM, time point: constant (~7 days, model-specific) | 0.106 | 0.928 | 0.591 | 0.676 | -0.208
in vitro model: cholesterol-high 0.2 mM, time point: terminal (~4-5 doublings, model-specific) | 0.0964 | 1 | 0.631 | 0.816 | -0.69
in vitro model: dormancy (butyrate + nitrate, low O2), time point: constant (~7 days, model-specific) | 0.0762 | 0.892 | -0.213 | -1.07 | 0.195
in vitro model: dormancy (butyrate + nitrate, low O2), time point: terminal (~4-5 doublings, model-specific) | 0.0498 | 0.991 | -0.405 | -0.637 | -0.234
in vitro model: standard 7H9 glycerol, time point: constant = terminal | 0.116 | 0.964 | -0.193 | 0.585 | -0.211
in vitro model: valerate, time point: constant (~7 days, model-specific) | 0.136 | 0.884 | 0.762 | 1.18 | -0.0878
in vitro model: valerate, time point: terminal (~4-5 doublings, model-specific) | 0.097 | 0.925 | -0.0183 | 1.26 | -0.0377

CC[C@@H](CO)NCCN[C@@H](CC)CO [ethambutol] + CC(=O)NC[C@H]1CN(c2ccc(N3CCOCC3)c(F)c2)C(=O)O1 [linezolid]
Conditions | AUC25, [4] | Einf, [2] | FIC50, [5] | FIC90, [1] | GRinf, [3]
in vitro model: acidic pH 5.7, time point: constant (~7 days, model-specific) | 0.0997 | 0.79 | 0.0133 | – | -0.243
in vitro model: acidic pH 5.7, time point: terminal (~4-5 doublings, model-specific) | 0.0783 | 0.957 | 1.24 | 0.495 | -0.168
in vitro model: intracellular J774, time point: constant = terminal | – | 0.948 | – | 0.585 | -0.511

Conditions | AUC25, [4] | Einf, [2] | FIC50, [5] | FIC90, [1] | GRinf, [3]
in vitro model: butyrate, time point: constant (~7 days, model-specific) | 0.0872 | 0.88 | 0.492 | – | 0.121
in vitro model: butyrate, time point: terminal (~4-5 doublings, model-specific) | 0.0727 | 0.934 | 0.333 | 0.243 | 0.126
in vitro model: cholesterol 0.05 mM, time point: constant (~7 days, model-specific) | 0.151 | 0.741 | 0.049 | – | -0.189
in vitro model: cholesterol 0.05 mM, time point: terminal (~4-5 doublings, model-specific) | 0.155 | 0.952 | -0.615 | – | -0.325
in vitro model: cholesterol-high 0.2 mM, time point: constant (~7 days, model-specific) | 0.106 | 0.935 | 0.732 | – | -0.702
in vitro model: cholesterol-high 0.2 mM, time point: terminal (~4-5 doublings, model-specific) | 0.104 | 1 | 0.569 | 1.03 | -0.951
in vitro model: dormancy (butyrate + nitrate, low O2), time point: constant (~7 days, model-specific) | 0.125 | 0.811 | 0.653 | – | 0.461
in vitro model: dormancy (butyrate + nitrate, low O2), time point: terminal (~4-5 doublings, model-specific) | 0.106 | 0.943 | -0.181 | 0.335 | -0.432
in vitro model: standard 7H9 glycerol, time point: constant = terminal | 0.0844 | 0.892 | 0.485 | – | 0.15
in vitro model: valerate, time point: constant (~7 days, model-specific) | 0.091 | 0.817 | -0.233 | – | 0.187
in vitro model: valerate, time point: terminal (~4-5 doublings, model-specific) | 0.0651 | 0.909 | 0.293 | 0.0781 | 0.127
